What is called EC50 is the midpoint of the concentration-response curve. High values mean a need for much substance, low ones an effect from little substance.

The text below walks through data of paper PMC2779714 (Science signaling, 2009).

In assay [1] the target is TRPM2 (Rattus norvegicus, UniProt E9PTA2). As to the kind of experiment: whole-cell patch clamp with intracellular ADPR. The assay is classed as cell-based. (Patch clamp records ionic current or voltage across a cell membrane.)
Assay [2] deals with TRPM2 (Mus musculus, UniProt Q91YD4). The experiment in a line: whole-cell patch clamp with intracellular ADPR. Type of assay: cell-based.
Chain of TRPM2 (Mus musculus, UniProt Q91YD4) (Q91YD4 whole entry): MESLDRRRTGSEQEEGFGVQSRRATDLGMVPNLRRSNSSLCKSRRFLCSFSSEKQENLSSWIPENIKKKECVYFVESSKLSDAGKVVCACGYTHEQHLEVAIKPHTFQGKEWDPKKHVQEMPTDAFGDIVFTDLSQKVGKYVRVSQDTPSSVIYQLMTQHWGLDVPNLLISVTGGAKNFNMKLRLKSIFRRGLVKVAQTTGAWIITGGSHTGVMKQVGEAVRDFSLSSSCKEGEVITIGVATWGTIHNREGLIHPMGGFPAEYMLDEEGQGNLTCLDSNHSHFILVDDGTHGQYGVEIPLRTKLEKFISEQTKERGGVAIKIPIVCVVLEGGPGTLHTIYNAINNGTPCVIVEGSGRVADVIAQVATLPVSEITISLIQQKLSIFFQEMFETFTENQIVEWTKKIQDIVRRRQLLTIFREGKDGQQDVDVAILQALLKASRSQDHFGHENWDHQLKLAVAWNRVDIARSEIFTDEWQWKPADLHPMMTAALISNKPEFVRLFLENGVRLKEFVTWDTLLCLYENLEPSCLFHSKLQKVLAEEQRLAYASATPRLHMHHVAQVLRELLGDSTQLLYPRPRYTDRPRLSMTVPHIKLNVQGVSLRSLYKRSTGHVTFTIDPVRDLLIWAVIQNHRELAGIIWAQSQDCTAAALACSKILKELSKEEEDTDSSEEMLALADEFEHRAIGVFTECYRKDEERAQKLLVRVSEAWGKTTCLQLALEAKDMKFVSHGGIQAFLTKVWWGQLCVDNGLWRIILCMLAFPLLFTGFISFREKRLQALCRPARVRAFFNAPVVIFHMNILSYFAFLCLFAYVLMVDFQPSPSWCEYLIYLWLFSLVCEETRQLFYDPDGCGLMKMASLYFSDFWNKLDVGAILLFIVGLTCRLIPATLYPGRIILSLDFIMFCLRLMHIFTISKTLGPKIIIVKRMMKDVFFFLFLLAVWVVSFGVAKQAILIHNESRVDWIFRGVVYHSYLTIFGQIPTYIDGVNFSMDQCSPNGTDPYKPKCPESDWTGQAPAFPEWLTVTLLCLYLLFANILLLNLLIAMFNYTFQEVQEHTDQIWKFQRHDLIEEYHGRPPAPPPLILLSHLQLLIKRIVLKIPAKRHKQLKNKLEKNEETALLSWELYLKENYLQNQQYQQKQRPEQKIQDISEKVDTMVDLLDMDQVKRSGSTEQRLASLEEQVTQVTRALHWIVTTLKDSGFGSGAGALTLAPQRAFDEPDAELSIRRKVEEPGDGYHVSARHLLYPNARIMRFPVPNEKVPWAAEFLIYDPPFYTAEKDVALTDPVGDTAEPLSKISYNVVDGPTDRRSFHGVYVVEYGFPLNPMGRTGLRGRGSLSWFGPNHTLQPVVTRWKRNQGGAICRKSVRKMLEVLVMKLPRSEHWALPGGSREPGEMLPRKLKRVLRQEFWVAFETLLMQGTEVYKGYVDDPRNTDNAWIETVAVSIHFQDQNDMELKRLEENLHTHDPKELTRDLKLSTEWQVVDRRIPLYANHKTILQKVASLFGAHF

Chain of TRPM2 (Rattus norvegicus, UniProt E9PTA2) (E9PTA2 whole entry): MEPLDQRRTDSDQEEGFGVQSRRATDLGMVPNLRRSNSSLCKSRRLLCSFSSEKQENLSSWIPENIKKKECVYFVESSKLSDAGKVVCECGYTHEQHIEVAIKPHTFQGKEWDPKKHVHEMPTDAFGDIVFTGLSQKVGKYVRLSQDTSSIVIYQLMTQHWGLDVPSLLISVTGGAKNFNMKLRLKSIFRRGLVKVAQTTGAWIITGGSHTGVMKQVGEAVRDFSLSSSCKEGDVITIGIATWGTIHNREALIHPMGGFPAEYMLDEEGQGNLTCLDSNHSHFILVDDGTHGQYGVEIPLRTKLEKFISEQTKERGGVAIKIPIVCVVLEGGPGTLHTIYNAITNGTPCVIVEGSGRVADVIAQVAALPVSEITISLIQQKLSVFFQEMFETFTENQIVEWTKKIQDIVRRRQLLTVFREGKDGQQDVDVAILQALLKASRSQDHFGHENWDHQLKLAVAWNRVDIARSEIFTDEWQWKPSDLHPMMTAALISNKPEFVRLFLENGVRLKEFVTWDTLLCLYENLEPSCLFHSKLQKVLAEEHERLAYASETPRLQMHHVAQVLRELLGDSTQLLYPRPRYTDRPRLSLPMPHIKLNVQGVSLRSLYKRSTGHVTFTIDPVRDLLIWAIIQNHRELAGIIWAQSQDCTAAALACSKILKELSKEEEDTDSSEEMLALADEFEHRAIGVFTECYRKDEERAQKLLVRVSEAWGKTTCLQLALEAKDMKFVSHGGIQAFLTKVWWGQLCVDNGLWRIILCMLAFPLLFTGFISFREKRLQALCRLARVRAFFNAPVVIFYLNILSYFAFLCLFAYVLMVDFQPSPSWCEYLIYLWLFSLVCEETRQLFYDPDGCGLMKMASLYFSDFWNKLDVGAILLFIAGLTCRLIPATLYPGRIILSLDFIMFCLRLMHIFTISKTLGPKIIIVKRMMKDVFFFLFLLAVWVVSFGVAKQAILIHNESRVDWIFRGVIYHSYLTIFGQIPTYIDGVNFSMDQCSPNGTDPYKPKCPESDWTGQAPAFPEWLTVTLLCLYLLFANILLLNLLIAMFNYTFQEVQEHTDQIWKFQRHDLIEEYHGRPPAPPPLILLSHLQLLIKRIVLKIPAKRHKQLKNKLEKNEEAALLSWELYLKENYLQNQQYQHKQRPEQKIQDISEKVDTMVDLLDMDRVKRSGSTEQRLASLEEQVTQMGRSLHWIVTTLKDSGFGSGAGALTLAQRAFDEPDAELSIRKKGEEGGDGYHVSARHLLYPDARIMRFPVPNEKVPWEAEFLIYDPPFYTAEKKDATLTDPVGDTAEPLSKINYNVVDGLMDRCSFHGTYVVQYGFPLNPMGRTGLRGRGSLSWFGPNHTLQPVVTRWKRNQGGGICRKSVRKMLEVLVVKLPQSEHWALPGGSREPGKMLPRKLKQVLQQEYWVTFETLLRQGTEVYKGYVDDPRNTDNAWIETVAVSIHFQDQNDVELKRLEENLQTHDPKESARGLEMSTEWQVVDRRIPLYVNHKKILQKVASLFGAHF

As for `Nc1ncnc2c1ncn2[C@@H]1O[C@H](COP(=O)(O)OP(=O)(O)OC[C@H]2OC(O)[C@H](O)[C@@H]2O)[C@@H](O)[C@H]1O` (some centres unmarked) [ADPR], the EC50 on TRPM2 [1] worked out at 110 µM; at TRPM2 [2], 360 µM.
